# Experimental data from ChEMBL document CHEMBL1141047, “4-Phenyl-1,2,3,6-tetrahydropyridine, an excellent fragment to improve the potency of PARP-1 inhibitors” (Bioorg Med Chem Lett, 2005).
# Target: Poly [ADP-ribose] polymerase 1 (Homo sapiens, UniProt P09874)
# Sequence (P09874 whole entry): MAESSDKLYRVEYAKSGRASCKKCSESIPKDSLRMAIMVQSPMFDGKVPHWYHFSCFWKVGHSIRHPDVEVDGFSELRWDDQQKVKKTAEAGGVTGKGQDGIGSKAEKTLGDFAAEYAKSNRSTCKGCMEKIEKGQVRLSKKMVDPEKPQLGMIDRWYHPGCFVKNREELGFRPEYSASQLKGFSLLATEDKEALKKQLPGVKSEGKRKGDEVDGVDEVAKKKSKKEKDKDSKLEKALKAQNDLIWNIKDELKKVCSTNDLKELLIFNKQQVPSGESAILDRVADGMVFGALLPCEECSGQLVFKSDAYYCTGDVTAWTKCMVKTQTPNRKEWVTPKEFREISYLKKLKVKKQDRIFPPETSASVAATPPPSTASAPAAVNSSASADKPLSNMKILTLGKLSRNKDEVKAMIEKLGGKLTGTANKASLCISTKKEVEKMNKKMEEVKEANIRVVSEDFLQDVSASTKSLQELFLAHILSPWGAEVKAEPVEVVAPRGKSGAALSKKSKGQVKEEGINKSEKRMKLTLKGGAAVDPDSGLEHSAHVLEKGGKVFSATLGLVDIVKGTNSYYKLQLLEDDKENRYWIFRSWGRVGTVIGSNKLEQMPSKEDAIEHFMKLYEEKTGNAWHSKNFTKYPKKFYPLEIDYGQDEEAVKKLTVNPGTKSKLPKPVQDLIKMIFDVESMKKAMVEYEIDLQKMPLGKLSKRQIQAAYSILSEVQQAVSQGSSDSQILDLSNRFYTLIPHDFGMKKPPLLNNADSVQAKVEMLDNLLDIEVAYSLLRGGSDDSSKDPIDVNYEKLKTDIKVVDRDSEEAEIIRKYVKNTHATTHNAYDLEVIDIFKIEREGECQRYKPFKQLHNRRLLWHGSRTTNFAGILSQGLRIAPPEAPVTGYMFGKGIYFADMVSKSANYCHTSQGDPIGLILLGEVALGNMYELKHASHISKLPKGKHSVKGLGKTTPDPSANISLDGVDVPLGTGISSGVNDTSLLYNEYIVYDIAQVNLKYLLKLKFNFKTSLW
# Description: In vitro inhibitory concentration against Poly(ADP-ribose) polymerase 1
row,SMILES,IC50 [nM]
1,O=C1N=C(CCCN2CC=C(c3ccccc3)CC2)NC2CCCCC12 (centres undefined),20
2,O=C1N=C(CCCN2CC=C(c3ccccc3)CC2)NC2CCOCC12 (centres undefined),200
3,CC1=NC(=O)C2CSCCC2N1 (centres undefined),467
4,O=C1N=C(CCCN2CC=C(c3ccccc3)CC2)NC2CCNCC12 (centres undefined),8600
5,CN1CCC2NC(CCCN3CC=C(c4ccccc4)CC3)=NC(=O)C2C1 (centres undefined),6100
6,O=c1[nH]c2ccc(CCCCN3CC=C(c4ccccc4)CC3)cc2c2ccccc12,119
7,O=c1[nH]nc(CCCCN2CCOCC2)c2ccccc12,950
8,Oc1nnc(CCCCCN2CCOCC2)c2ccccc12,119
9,CC1CCC2NC(CCCN3CC=C(c4ccccc4)CC3)=NC(=O)C2C1 (centres undefined),274
10,O=C1N=C(CCCN2CC=C(c3ccccc3)CC2)NC2CCCCCC12 (centres undefined),495
11,CC1(C)CCC2NC(CCCN3CC=C(c4ccccc4)CC3)=NC(=O)C2C1 (centres undefined),> 10000
12,O=C1NC(CCCN2CC=C(c3ccccc3)CC2)=NC2CCCC12 (centres undefined),249
13,O=C1NC(CCCN2CC=C(c3ccccc3)CC2)=NC2CCSCC12 (centres undefined),8.9
14,O=c1[nH]c2cc(CN3CCOCC3)ccc2c2ccccc12,23
